Measurements reported in paper PMC3278406 (PLoS ONE, 2012).
Entries after “also recorded” stand apart in the source; their conditions may differ.

Target: Stx2 toxoid (Escherichia phage 933W, UniProt P09386)
Type: binding, Escherichia coli O157:H7

Stx2 toxoid, sequence (P09386 whole entry, looked up): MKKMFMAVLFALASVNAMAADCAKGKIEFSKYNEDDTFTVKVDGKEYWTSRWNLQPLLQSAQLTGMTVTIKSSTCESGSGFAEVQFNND

Compound | Stx2 binding | further results
CC(C)CCC[C@@H](C)[C@H]1CC[C@H]2[C@@H]3CC[C@H]4CCCC[C@]4(C)[C@H]3CC[C@]12C [5αCh, 5-α-Cholestane] | – | Stx2 binding to Gb3 in the presence of sterol and PC: failed to support binding
CCCCCCCCCCCCC/C=C/[C@@H](O)[C@@H](N)CO[C@@H]1O[C@H](CO)[C@@H](O[C@@H]2O[C@H](CO)[C@H](O[C@H]3O[C@H](CO)[C@H](O)[C@H](O)[C@H]3O)[C@H](O)[C@H]2O)[C@H](O)[C@H]1O [Lyso-Gb3, Lyso-globotriaosylsphingosine] | did not bind | –
CC(C)CCC[C@@H](C)[C@H]1CC[C@H]2[C@@H]3CC=C4C[C@@H](O)CC[C@]4(C)[C@H]3CC[C@]12C [cholesterol] | – | change of Stx2 binding to Gb3 in the absence of cholesterol: statistically significant decrease; change of Stx2 binding to Gb3 in the presence of cholesterol alone: statistically significant increase
Asialo GM1 gangliosides [aGM1] | failed to support binding | –
Asialo GM2 gangliosides [aGM2] | failed to support binding | –
Galactosyl ceramide [Gal-Cer] | failed to support binding | –
Globotetraosyl ceramide [Gb4] | increased binding | Kd (read-out: apparent Kd of Stx2): 14 nM
Globotriaosyl ceramide, Ceramide trihexoside [Gb3] | poor binding; also recorded: increased binding | concentration of Stx2 needed to reach saturated binding: above 1 µM
Glucosyl ceramide [Glc-Cer] | failed to support binding | –
Lactosyl ceramide [Lac-Cer] | failed to support binding | –
